Measurements published in ChEMBL document CHEMBL1146719, “Lysyl 4-aminobenzoic acid derivatives as potent small molecule mimetics of plasminogen kringle 5” (Bioorg Med Chem Lett, 2004).
Peptide text beside a SMILES is read from it.

Species: Homo sapiens
Assay: Inhibition of VEGF-stimulated migration of human microvascular endothelial cells
Type: functional, cell-based
Details: Endothelial cell

## CC(=O)N[C@@H](CCCCN)C(=O)N[C@@H](CC(C)C)C(=O)N[C@@H](Cc1ccc(O)cc1)C(=O)N[C@@H](CC(=O)O)C(=O)O (Ac-KLYD-OH)
  IC50: 1.2 nM
